In paper PMC11927176 (BMC Microbiology, 2025):

Tested on: AadA37
Assay: coupled continuous spectrophotometric assay of pyrophosphate release
Assay type: biochemical, Morganella morganii
Conditions: 5 mM ATP, 10 mM MgCl2, 50 mM HEPES pH 7.5, 37 °C

| SMILES | Km [µM] |
| --- | --- |
| CN[C@@H]1[C@H](O)[C@H](NC)[C@H]2O[C@@]3(O)C(=O)C[C@@H](C)O[C@H]3O[C@@H]2[C@H]1O [Spectinomycin] | 8.17 |
| CN[C@@H]1[C@H](O[C@H]2[C@H](O[C@H]3[C@H](O)[C@@H](O)[C@H](N=C(N)N)[C@@H](O)[C@@H]3N=C(N)N)O[C@@H](C)[C@]2(O)C=O)O[C@@H](CO)[C@H](O)[C@H]1O [Streptomycin] | 2.67 |
